Measurements taken from article PMC7940618, “Specific inhibition of the Survivin–CRM1 interaction by peptide-modified molecular tweezers” (Nature Communications, 2021).
“And” between values parts separate entries of the source, which are not always exact repeats. Identical values can stand only once. Peptide text beside a SMILES is read from it.

What was measured:
[1] = molecular target: T1, GST-Survivin120–CRM1 interaction (Homo sapiens, UniProt O15392); assay: Pull-down with GST-Survivin120 wildtype bait, CRM1 and RanQ69L; type: binding; details: for CRM1: Peak area determined with ImageJ / CRM1 intensity_normalised on GST-Surv intensity (samples 1-14) / CRM1: Control w/o GST-Survivin subtracted (sample 16 or 23): CRM1 band; for CRM1: Peak area determined with ImageJ / CRM1 intensity_normalised on GST-Surv intensity (samples 1-14) / CRM1: Control w/o GST-Survivin subtracted (sample 16 or 23) / CRM1 intensity_normalised on GST-Surv intensity (samples 1-14) and CRM1 intensity w/o incubation (sample 15 or 22): samples 15-21 (WT); for CRM1: Control w/o GST-Survivin subtracted (sample 16 or 23): sample 16 subtracted; for GST-Surv: Peak area determined with ImageJ / GST-Surv: Control w/o GST-Survivin subtracted (sample 2 or 9): GST-Surv bait band; for GST-Surv: Peak area determined with ImageJ: samples 1-7 (WT according to the summary in r39-r41); for GST-Surv: Control w/o GST-Survivin subtracted (sample 2 or 9): samples 1-7 (WT), sample 2 subtracted; for Normalised CRM1 intensity, summary of replicates I and II: WT, w/o tweezer = 100, replicates I and II
T1 construct: the only published NMR structure originated from a truncated Survivin (aa 1-120) with improved solubility; made in house; host or cells: Escherichia coli soluBL21
T1 sequence (O15392 1-120): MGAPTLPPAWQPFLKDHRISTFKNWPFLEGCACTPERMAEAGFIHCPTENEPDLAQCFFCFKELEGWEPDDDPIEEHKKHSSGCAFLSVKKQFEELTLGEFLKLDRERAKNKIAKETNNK
Protocol: Next, we investigated whether tweezer inhibition of the export complex assembly is compromised upon lysine mutations near the NES. Therefore, pull-down experiments were performed with recombinant GST-tagged Survivin120 wildtype and K90/103T as bait proteins, tweezers, recombinant CRM1 and RanQ69L (Fig. 7g). Controls lacking the Survivin baits were included, as well as isolated peptides without tweezer (Fig. 7h). […] However, for the double lysine mutant GST-Survivin120-K90/103T even the tweezer conjugates lost most of their inhibitory power toward the essential Survivin–CRM1 interaction.
All pull-down assays were performed at room temperature in pull-down buffer (PBS, pH 7.4, 1 mM DTT, 0.02 Triton X-100). GST fusion proteins were immobilized on 50 μL GSH-coated Sepharose 4B beads from GE Healthcare. The beads were prior equilibrated and blocked with 500 μL pull-down blocking buffer (PBS, pH 7.4, 1 (w/v) BSA, 1 mM DTT, 0.02 (v/v) Triton X-100) for 1 h to prevent unspecific binding.
For analysis of the effective inhibitory tweezer concentration, 200 μg 293T lysate with overexpressed Survivin142-HA was preincubated without ligand or with different concentrations (10 nM to 200 μM) of unmodified tweezer TW, TW-ELTL, TW-ELTLGEFL, or TW-LFEEGLLT for 1 h and then mixed with 35 μg GST-CRM1, 55 μg RanQ69L, and 2 mM dGTP. GSH-beads were incubated with this protein mixture for 2 h under rotation. For analysis of tweezer specificity, 40 μg GST-Survivin120 or GST-Survivin120-K90/103T point mutant was pre-bound to equilibrated GSH-beads in 500 μL pull-down buffer, containing additionally either no ligand or 50 μM unmodified tweezer TW, TW-ELTL, TW-ELTLGEFL, or peptides ELTL and ELTLGEFL, for 1 h under rotation. After washing and blocking, GSH-beads were incubated with a protein mixture consisting of 2 mM dGTP, 50 μg CRM1, and 50 μg RanQ69L for 2 h under rotation.
Samples of input and beads taken during pull-down experiments were ran on 12.5 SDS gels and transferred onto 0.2 µM PVDF membranes (Amersham Hybond P 0.2) using a PerfectBlue™ tank electro blotter (Peqlab) at 350 mA for 150 min. Membranes were blocked for 1 h using 5% milk powder in TBS buffer containing 0.1% Tween-20. Next, membranes were incubated in primary antibodies against HA (anti-HA, mouse monoclonal, BioLegend, Covance MMS-101R, 1:1,000), GST (anti-GST, mouse monoclonal, Santa Cruz Biotechnology Inc., sc-57753, 1:1000) or CRM1 (anti-CRM1, rabbit polyclonal, Novus Biologicals Ltd., NB100-79802, 1:10,000) overnight at 4 °C. Secondary horseradish peroxidase (HRP)-conjugated antibody (anti-mouse IgG-HRP, sheep, GE Healthcare, NXA931 or anti-rabbit IgG-HRP, donkey, GE Healthcare, NA934) was then added (1:10,000) for 1 h at room temperature. Chemiluminescence was detected and imaged using the Pierce ECL Plus Western Blotting Substrate kit (Thermo Fisher Scientific) and Chemidoc system (Bio-Rad) or film processor Cawomat 2000 IR (CAWO). Western blots were analyzed by densitometric analysis with ImageJ version 1.52p (U.S. National Institutes of Health), measuring the mean gray intensity of protein bands. Uncropped and unprocessed scans of western blots are deposited in the Source Data file.

[2] = molecular target: T2, Survivin120/CRM1_1-1062VLV430AAA complex (Homo sapiens, UniProt O15392); assay: Fluorescence anisotropy titration of Atto488-Survivin120/CRM1 complex with tweezers; type: binding; details: for Anisotropy: Data 1; for IC50: fluorescence anisotropy, Atto488-Survivin120:CRM1 mutant 1:5, n = 1, read-out: IC50, disruption of Survivin–CRM1 complex
T2 construct: the only published NMR structure originated from a truncated Survivin (aa 1-120) with improved solubility; GST with PreScission site (N); made in house; host or cells: E. coli BL21-CodonPlus-RIL (CRM1 mutant); E. coli soluBL21 (Survivin120)
T2 sequence (O15392 1-120, one chain of several): as the sequence (O15392 1-120) above
Protocol: We also used fluorescence anisotropy experiments to investigate the ability of the tweezer molecules to disrupt the Survivin–CRM1 complex. Atto488-labeled Survivin120 was preincubated with the CRM1_1-1062VLV430AAA mutant[40] that binds Survivin irrespective of RanGTP and titrated with tweezers.
Fluorescence anisotropy was measured with a Jasco Spectrofluorometer FP-8300 in PBS buffer, pH 7.4, at 25 °C and data were collected with the software Spectra Manager™.
For the quantitative analysis of the Survivin120/CRM1 complex, Survivin120 was labeled with ATTO488-maleimide from Jenabioscience according to the manufacturer’s instructions and mixed with CRM1_1-1062VLV430AAA in a ratio of 1:5. The protein complex was then titrated with tweezers in several steps until a final concentration of approximately 180 μM tweezers was reached. Data were transformed to logarithmic scale and IC50 was fitted using the equation in GraphPad Prism 8:2 y=Amin+Amax−Amin/1+10^x−logIC50 where Amax is the anisotropy in the absence of tweezer, Amin is the anisotropy at the end titration, and x is the concentration of tweezer. Amax was constrained for each data set, whereas Amin and IC50 were fitted.

[3] = fraction of sample 15 (w/o Tweezer)
[4] = Concentration of Tweezer 8.26446
[5] = Concentration of Tweezer 16.39344
[6] = Concentration of Tweezer 24.39024
[7] = Concentration of Tweezer 32.25806
[8] = Concentration of Tweezer 40.00000
[9] = Concentration of Tweezer 55.11811
[10] = Concentration of Tweezer 83.96947
[11] = Concentration of Tweezer 136.69060
[12] = Concentration of Tweezer 183.67350

Structure (SMILES) | CRM1: Peak area determined with ImageJ [1] | CRM1 intensity_normalised on GST-Surv intensity (samples 1-14) [1] | CRM1: Control w/o GST-Survivin subtracted (sample 16 or 23) [1] | GST-Surv: Peak area determined with ImageJ [1] | GST-Surv: Control w/o GST-Survivin subtracted (sample 2 or 9) [1] | Normalised CRM1 intensity, summary of replicates I and II [1] | inhibition of the interaction between CRM1 and GST-Survivin120 ([1]; pull-down, 50 µM ligand, wildtype) | CRM1 intensity_normalised on GST-Surv intensity (samples 1-14) and CRM1 intensity w/o incubation (sample 15 or 22) [1, 3] | CRM1 intensity_normalised on GST-Surv intensity (samples 1-14) and CRM1 intensity w/o incubation (sample 15 or 22) ([1]; w/o Tweezer = 100) [%] | Anisotropy [2, 4] | Anisotropy [2, 5] | Anisotropy [2, 6] | Anisotropy [2, 7] | Anisotropy [2, 8] | Anisotropy [2, 9] | Anisotropy [2, 10] | Anisotropy [2, 11] | Anisotropy [2, 12] | Anisotropy ([2]; Concentration of Tweezer 225.80650) | IC50 [2]
O=P(O)(O)Oc1c2c(c(OP(=O)(O)O)c3c1C1CC3c3cc4c(cc31)C1CC4c3ccccc31)C1CC2c2cc3c(cc21)C1CC3c2ccccc21 [TW, reference compound] | 21154.6 | 0.3073 | 16296.9 | 53864.7 | 53029.3 | 86.9559% and 97.9595% | inactive | 0.8696 | 86.9559 | 0.0578 | 0.0573 | 0.0568 | 0.0561 | 0.0556 | 0.0551 | 0.0525 | 0.0507 | 0.0512 | 0.0517 | 53 µM and 53.4 µM
CC(C)C[C@H](NC(=O)[C@H](Cc1ccccc1)NC(=O)[C@H](CCC(=O)O)NC(=O)CNC(=O)[C@H](CC(C)C)NC(=O)[C@@H](NC(=O)[C@H](CC(C)C)NC(=O)[C@H](CCC(=O)O)NC(=O)Cn1cc(CCOP(=O)(O)Oc2c3c(c(OP(=O)(O)O)c4c2C2CC4c4cc5c(cc42)C2CC5c4ccccc42)C2CC3c3cc4c(cc32)C2CC4c3ccccc32)nn1)[C@@H](C)O)C(=O)O [TW-ELTLGEFL] (HELM PEPTIDE1{[O=C(Cn1cc(CCOP(=O)(O)Oc2c3c(c(OP(=O)(O)O)c4c2C2CC4c4cc5c(cc42)C2CC5c4ccccc42)C2CC3c3cc4c(cc32)C2CC4c3ccccc32)nn1)[*:2]].E.L.T.L.G.E.F.L}$$$$V2.0) |  |  |  |  |  | 18.4722% and 35.2764% |  |  | 18.4722 |  |  |  |  |  |  |  |  |  |  | 12 µM and 11.6 µM
CC(C)C[C@H](NC(=O)[C@@H](NC(=O)[C@H](CC(C)C)NC(=O)[C@H](CCC(=O)O)NC(=O)Cn1cc(CCOP(=O)(O)Oc2c3c(c(OP(=O)(O)O)c4c2[C@H]2C[C@@H]4c4cc5c(cc42)[C@H]2C[C@@H]5c4ccccc42)[C@H]2C[C@@H]3c3cc4c(cc32)[C@H]2C[C@@H]4c3ccccc32)nn1)[C@@H](C)O)C(=O)O [TW-ELTL] | 4951.05 | 0.007388 | 93.343 | 13469.9 | 12634.6 | 2.09% and 27.3879% |  | 0.0209 | 2.09 | 0.0572 | 0.0560 | 0.0559 | 0.0551 | 0.0548 | 0.0528 | 0.0510 | 0.0501 | 0.0506 |  | 39 µM
